# Test results: patent US20230150986A1, “ANTAGONISTS OF THE MUSCARINIC ACETYLCHOLINE RECEPTOR M4” (Vanderbilt University, priority 2019, published 2023)
# pIC50: −log10 of the molar value.
# Legend:
# [1] = tested on: Sprague-Dawley rats; test: Haloperidol-induced catalepsy assay; format: in vivo, rat; conditions: for reversal of catalepsy: haloperidol 1.5 mg/kg i.p.
# Protocol: Drugs. Compound 1 was weighed and 2% Tween 80/0.5% methylcellulose were placed on top of the compound in serum bottles. This was sonicated for about an hour. All doses were administrated at 10 mL/kg p.o. The final solution is a suspension. Haloperidol was dissolved in 1 mL of 8% lactic acid and taken to 50 mL with sterile water. Haloperidol was dosed at 1 mL/kg i.p.
# 1. Haloperidol 1.5 mg/kg, i.p.
# 2. Compound 1, 0.3-3 mg/kg, p.o.
# 3. Vehicle (2% tween 80/0.5% MC), p.o.
# Animals. Male Sprague-Dawley rats weighing between 290-326 grams (Envigo, Inc., Indianapolis, Ind.) were used. They were housed in the animal care facility certified by the American Association for the Accreditation of Laboratory Animal Care (AAALAC) under a 12-hour light/dark cycle (lights on: 7 a.m.; lights off: 7 p.m.) and had free access to food and water. The experimental protocols performed during the light cycle were approved by the Institutional Animals Care and Use Committee of Vanderbilt University and conformed to the guidelines established by the National Research Council Guide for the Care and Use of Laboratory Animals.
# Haloperidol-induced catalepsy. Adult male Sprague-Dawley rats are injected with 1.5 mg/kg of haloperidol i.p. Thirty minutes later, the animals are administered 0.3-3 mg/kg of Compound 1 or vehicle. Cataleptic behavior is determined 60 minutes later by placing the forelimbs on a bar raised 6 cm above the table and recording the amount of time it takes for the rat to withdraw the forelimbs with a cutoff of 60 seconds. Data are expressed as mean latency to withdraw ±SEM or percent inhibition of catalepsy ±SEM.
# Data Analysis. The data for these dose-response studies were analyzed by a one way analysis of variance. If there was a main effect of dose, then each dose group was compared with each of the other treated groups using GraphPad Prism (version 4.03, GraphPad, La Jolla, Calif.).
# [2] = molecular target: T1, Human M4 (Homo sapiens, UniProt P08173); test: mAChR M4 cell-based functional assay (calcium flux, decrease of EC80 acetylcholine response); conditions: for Human M4 Emin: % ACh maximum at 30 μM; for pIC50: CHO-K1 cells with human M4 and Gqi5, EC80 acetylcholine
# T1 construct: Human or rat M4 cDNA, along with the chimeric G protein Gq,5, were transfected into Chinese hamster ovary (CHO-K1) cells; expressed in transfected cells; host or cells: CHO-K1 (M4/Gqi5/CHO)
# T1 sequence (P08173 1-479): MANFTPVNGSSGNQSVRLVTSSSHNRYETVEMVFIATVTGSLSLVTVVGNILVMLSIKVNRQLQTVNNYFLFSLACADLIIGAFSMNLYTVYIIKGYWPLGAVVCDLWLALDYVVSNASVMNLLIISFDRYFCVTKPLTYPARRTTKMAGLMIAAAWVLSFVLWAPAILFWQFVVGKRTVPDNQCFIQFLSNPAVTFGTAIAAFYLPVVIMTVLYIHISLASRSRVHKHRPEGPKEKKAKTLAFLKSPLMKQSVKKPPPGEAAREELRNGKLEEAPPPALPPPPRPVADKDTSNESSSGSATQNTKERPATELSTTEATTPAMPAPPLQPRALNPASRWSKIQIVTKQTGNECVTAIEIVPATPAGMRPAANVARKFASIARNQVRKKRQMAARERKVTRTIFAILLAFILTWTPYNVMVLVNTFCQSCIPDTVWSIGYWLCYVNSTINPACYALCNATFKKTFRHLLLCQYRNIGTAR
# Method in brief: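 CHO-K1 cells stably co-expressing M4 with chimeric Gqi5, loaded with Fluo-4 AM for 50 min at 37 °C; compounds added as 10-point 1:3 curves, then acetylcholine at EC20 (143 s) and EC80 (268 s). Calcium read by FDSS fluorescence ratio; IC50 from four-parameter fit of decrease in EC80 acetylcholine response.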
Human M4 Emin [2] [%],pIC50 [2],SMILES,reversal of cataleptic behavior ([1]; 0.3 mg/kg),"reversal of catalepsy ([1]; 1 mg/kg p.o., rat, p<0.01) [%]","reversal of catalepsy ([1]; 3 mg/kg p.o., rat, p<0.001) [%]","latency to withdraw (forelimbs) compared to vehicle treated control animals ([1]; 0.3-3 mg/kg p.o., rat, F3,36=8.7 p<0.001)"
4,7.98,"Fc1cc(F)c(F)c(-c2ccc(N[C@H]3C[C@@H]4CN(CC5CCOCC5)C[C@@H]4C3)nn2)c1 [Compound 1, (3aR,5s,6aS)-2-((tetrahydro-2H-pyran-4-yl)methyl)-N-(6-(2,3,5-trifluorophenyl)pyridazin-3-yl)octahydrocyclopenta[c]pyrrol-5-amine]",26.2 0/0,50.9,65.2,significantly reduced
4,7.68,"Fc1cc(F)c(F)c(-c2ccc(N[C@H]3C[C@@H]4CN(Cc5ccccn5)C[C@@H]4C3)nn2)c1 [Compound 2, (3aR,5s,6aS)-2-(pyridin-2-ylmethyl)-N-(6-(2,3,5-trifluorophenyl)pyridazin-3-yl)octahydrocyclopenta[c]pyrrol-5-amine]",,,,
